Experimental data: patent US5593985A, “Cephalosporin compounds” (priority 1994, dated 1997)
Values after ≈ are worked out from the molar mass of the structure shown. Read-outs that look alike come from different tables or passages of the source.

Columns and labels:
[1] = test system: D StreptococcusII; assay: MIC, clinically separated strains; type: cell-based, D Streptococcus; conditions: Streptococcus, 18 h; for MIC: read-out: range of MIC
Procedure: (§1) The MIC values were taken by employing a two-fold dilution method: that is, two-fold serial dilutions of each of the test compounds were made from initial concentration of […]; each 1.5 ml of them was dispersed in 13.5 ml of Muller Hinton agar medium to adjust to […]; the standard test strain which had the concentration of 10^7 CFU/ml was inoculated by medium;and these were incubated at 37° C. for 18 hours.

[2] = test system: Pseudomonas aeruginosa 1771; assay: MIC, standard strain 14; type: cell-based; conditions: Pseudomonas aeruginosa; P. aeruginosa 1771; two-fold dilution, Muller Hinton agar, 10^7 CFU/ml, 37° C., 18 hours; read-out: Minimal Inhibitory Concentration(MIC)
Procedure: (§2) In order to illustrate antibiotic effectiveness of the compounds of the present invention, the minimal inhibitory concentrations (MIC's) of the representative compounds were determined against standard strains and compared with ceftazidime and cefpirome, which were used as control compounds.
as §1
(§3) The test used twenty kinds of standard test strains which induced urinary tract infections, respiratory organ infections, skin soft tissue infections, plasma infections, gastrointestinal infections, central nervous system infections, most of which produce β-lactamase. The standard test strains used are as follows:
14. Pseudomonas aeruginosa 1771

[3] = test system: Staphylococcus aureus 503; assay: MIC, standard strain 6; type: cell-based; conditions: Staphylococcus aureus; S. aureus 503; two-fold dilution, Muller Hinton agar, 10^7 CFU/ml, 37° C., 18 hours; read-out: Minimal Inhibitory Concentration(MIC)
Procedure: as §2, §1, §3
6. Staphylococcus aureus 503

[4] = test system: Escherichia coli 1507 E; assay: MIC, standard strain 11; type: cell-based; conditions: E. coli 1507 E, two-fold dilution, Muller Hinton agar, 10^7 CFU/ml, 37° C., 18 hours, read-out: Minimal Inhibitory Concentration(MIC)
Procedure: as §2, §1
(§4) The test used twenty kinds of standard test strains which induced urinary tract infections, respiratory organ infections, skin soft tissue infections, plasma infections, gastrointestinal infections, central nervous system infections, most of which produce β-lactamase.

[5] = acute toxicity test; conditions: in vivo, iv
[6] = test system: Streptococcus pyogens A77; assay: antibiotic activity against systemic infection in mice; type: in vivo; conditions: A77, im, bacteria intraperitoneally, intramuscular injection, 5 to 0.078 mg/kg, probit method (confidence limit), read-out: PD50
Procedure: In order to illustrate clinical effectiveness of the compounds of the present invention more specifically, the stability to β-lactamase and antibiotic activity against systemic infection, were tested, and the results are shown in Table 4 and 5, respectively.
Antibiotic activity against systematic infection was tested by using mice: that is, 0.3 ml of a strain solution containing fatal dose of bacteria in 0.3 ml was administered to mice intraperitoneally; and then, the test antibiotics were administered intramuscularly in an amount of 5 to 0.078 mg/kg. PD50 was calculated by probit method.

[7] = test system: Salmonella typhimurium; assay: MIC, standard strain 16; type: cell-based; conditions: Salmonella enterica; S. typhimurium; two-fold dilution, Muller Hinton agar, 10^7 CFU/ml, 37° C., 18 hours; read-out: Minimal Inhibitory Concentration(MIC)
Procedure: as §2, §1, §3
16. Salmonella typhimurium

[8] = test system: Staphylococcus aureus SG 511; assay: MIC, standard strain 4; type: cell-based; conditions: read-out: Minimal Inhibitory Concentration(MIC)
Procedure: as §2, §1, §3
4. Staphylococcus aureus SG 511

[9] = test system: MRSA(Yonsei Univ.); assay: MIC, clinically separated strains; type: cell-based; design: range of MIC: unit not given here
Procedure: as §1

[10] = test system: Streptococcus I; assay: MIC, clinically separated strains; type: cell-based; design: range of MIC: unit not given here; conditions: 20 clinical strains; for MIC50 / MIC90: Streptococcus, 18 h
Procedure: as §1

[11] = test system: Klebsiella aerogenes 1552 E; assay: MIC, standard strain 18; type: cell-based; conditions: K. aerogenes 1552 E, two-fold dilution, Muller Hinton agar, 10^7 CFU/ml, 37° C., 18 hours, read-out: Minimal Inhibitory Concentration(MIC)
Procedure: as §2, §1, §3
18. Klebsiella aerogenes 1552 E

[12] = test system: Staphylococcus aureus 285; assay: MIC, standard strain 5; type: cell-based; conditions: Staphylococcus aureus; S. aureus 285; two-fold dilution, Muller Hinton agar, 10^7 CFU/ml, 37° C., 18 hours; read-out: Minimal Inhibitory Concentration(MIC)
Procedure: as §2, §1, §3
5. Staphylococcus aureus 285

[13] = test system: Enterobacter cloacae P 99; assay: MIC, standard strain 19; type: cell-based; conditions: P99, 18 h, read-out: Minimal Inhibitory Concentration(MIC)
Procedure: as §2, §1, §3
19. Enterobacter cloacae P 99

[14] = test system: Streptococcus pyogenes A 308; assay: MIC, standard strain 1; type: cell-based; conditions: A308, S. pyogenes A 308, two-fold dilution, Muller Hinton agar, 10^7 CFU/ml, 37° C., 18 hours, read-out: Minimal Inhibitory Concentration(MIC)
Procedure: as §2, §1, §3
1. Streptococcus pyogenes A 308

[15] = test system: Pseudomonas aeruginosa 1592 E; assay: MIC, standard strain 13; type: cell-based; conditions: P. aeruginosa 1592 E, two-fold dilution, Muller Hinton agar, 10^7 CFU/ml, 37° C., 18 hours, read-out: Minimal Inhibitory Concentration(MIC)
Procedure: as §2, §1, §3
13. Pseudomonas aeruginosa 1592 E

[16] = test system: Escherichia coli DC 2; assay: MIC, standard strain 9; type: cell-based; conditions: DC2, E. coli DC 2, two-fold dilution, Muller Hinton agar, 10^7 CFU/ml, 37° C., 18 hours, read-out: Minimal Inhibitory Concentration(MIC)
Procedure: as §2, §1, §4

[17] = test system: Gram-negative and Gram-positive bacteria; conditions: cited from earlier work
[18] = test system: Pseudomonas; conditions: compared with DQ-2556 or ceftazidime; cited from earlier work
[19] = Staphylococcus aureus, MRSA, 18 h, 17 clinical strains

Structure (SMILES) | MIC50 ([1]; 19 clinical strains) [µg/mL] | MIC90 ([1]; 19 clinical strains) [µg/mL] | MIC [2] [µg/mL] | MIC [3] [µg/mL] | MIC [4] [µg/mL] | MIC [7] [µg/mL] | antibiotic activities against MRSA(Yonsei Univ.), in words [9] | MIC50 [9, 19] [µg/mL] | MIC90 [9, 19] [µg/mL] | MIC50 [10] [µg/mL] | MIC90 [10] [µg/mL] | MIC [11] [µg/mL] | MIC [12] [µg/mL] | MIC [13] [µg/mL] | MIC [14] [µg/mL] | MIC [15] [µg/mL] | MIC [16] [µg/mL] | further results
CO/N=C(\C(=O)N[C@@H]1C(=O)N2C(C(=O)[O-])=C(C[n+]3ccc(C(N)=O)c4c3CCC4)CS[C@H]12)c1csc(N)n1 [Example 3] | 25 (≈ 44.8 µM) | 100 (≈ 179 µM) | 391 (≈ 701 µM) | 391 (≈ 701 µM) | 25 (≈ 44.8 µM) | 25 (≈ 44.8 µM) | unexpectedly potent antibiotic activities | 12.5 (≈ 22.4 µM) | 100 (≈ 179 µM) | 0.025 (≈ 0.0448 µM) | 12.5 (≈ 22.4 µM) | 25 (≈ 44.8 µM) | 781 (≈ 1400 µM) | 3120 (≈ 5600 µM) | 0.7 (≈ 1.26 µM) | 1560 (≈ 2800 µM) | 25 (≈ 44.8 µM) | MIC ([1]; 19 clinical strains): 6.25 to 100 µg/mL (≈ 11.2 to 179 µM); LD50 [5]: > 3000 mg/kg; ED50 [6]: 0.29 mg/kg; MIC ([8]; SG511, 18 h): 391 µg/mL (≈ 701 µM); range of MIC ([9]; 17 clinical strains): 0.013-100.000; range of MIC [10]: 0.007-25.000
CO/N=C(\C(=O)N[C@@H]1C(=O)N2C(C(=O)[O-])=C(C[n+]3cccc4c3CCC4)CS[C@H]12)c1csc(N)n1 [cefpirome, reference compound] | 50 (≈ 97.2 µM) | 100 (≈ 194 µM) | 391 (≈ 760 µM) | 13 (≈ 25.3 µM) | 75 (≈ 146 µM) | 25 (≈ 48.6 µM) | shows resistance to cefpirome | 100 (≈ 194 µM) | 100 (≈ 194 µM) | 0.025 (≈ 0.0486 µM) | 12.5 (≈ 24.3 µM) | 25 (≈ 48.6 µM) | 781 (≈ 1520 µM) | 3120 (≈ 6070 µM) | 4 (≈ 7.77 µM) | 1560 (≈ 3040 µM) | 49 (≈ 95.2 µM) | MIC [1]: 6.25 to 100 µg/mL (≈ 12.1 to 194 µM); activity against Gram-negative and Gram-positive bacteria, in words [17]: improved activity against Gram-negative and Gram-positive bacteria; MIC ([8]; SG511, S. aureus SG 511, two-fold dilution, Muller Hinton agar, 10^7 CFU/ml, 37° C., 18 hours): 391 µg/mL (≈ 760 µM); MIC ([9]; Staphylococcus aureus, MRSA, 18 h, read-out: range of MIC, 17 clinical strains): 100 µg/mL (≈ 194 µM); activity against Pseudomonas, in words [18]: inferior to ceftazidime
